Reference: publication PMC3694096, “Development of Novel In Vivo Chemical Probes to Address CNS Protein Kinase Involvement in Synaptic Dysfunction” (PLoS ONE, 2013)
Like-named read-outs stand apart in the source and are kept apart here.

What was measured:
Abl(m) = molecular target: T1, Abl(m) (Mus musculus, UniProt P00520); experiment: Kinome profiler screen; assay type: biochemical; details: at 20,000 nM inhibitor; kinase activity remaining
T1 construct: purchased Millipore KinaseProfiler

Abl(T315I) = molecular target: T2, Abl(T315I) (Homo sapiens, UniProt P00519, T315I); experiment: Kinome profiler screen; assay type: biochemical; details: at 20,000 nM inhibitor; kinase activity remaining
T2 construct: purchased Millipore KinaseProfiler

Arg(m) = molecular target: T3, Arg(m) (Mus musculus, UniProt Q4JIM5); experiment: Kinome profiler screen; assay type: biochemical; details: at 20,000 nM inhibitor; kinase activity remaining
T3 construct: purchased Millipore KinaseProfiler

BRK = molecular target: T4, BRK (Homo sapiens, UniProt Q13882); experiment: Kinome profiler screen; assay type: biochemical; details: at 20,000 nM inhibitor; kinase activity remaining
T4 construct: purchased Millipore KinaseProfiler

CaMKI = molecular target: T5, CaMKI (Homo sapiens, UniProt Q14012); experiment: Kinome profiler screen; assay type: biochemical; details: at 20,000 nM inhibitor; kinase activity remaining
T5 construct: purchased Millipore KinaseProfiler

CK1γ3 = molecular target: T6, CK1γ3 (Homo sapiens, UniProt Q9Y6M4); experiment: Kinome profiler screen; assay type: biochemical; details: at 20,000 nM inhibitor; kinase activity remaining
T6 construct: purchased Millipore KinaseProfiler

CK2 = molecular target: T7, CK2 (Homo sapiens, UniProt P68400); experiment: Kinome profiler screen; assay type: biochemical; details: at 20,000 nM inhibitor; kinase activity remaining
T7 construct: purchased Millipore KinaseProfiler

cKit = molecular target: T8, cKit (Homo sapiens, UniProt P10721); experiment: Kinome profiler screen; assay type: biochemical; details: at 20,000 nM inhibitor; kinase activity remaining
T8 construct: purchased Millipore KinaseProfiler
T8 sequence (P10721 26-976): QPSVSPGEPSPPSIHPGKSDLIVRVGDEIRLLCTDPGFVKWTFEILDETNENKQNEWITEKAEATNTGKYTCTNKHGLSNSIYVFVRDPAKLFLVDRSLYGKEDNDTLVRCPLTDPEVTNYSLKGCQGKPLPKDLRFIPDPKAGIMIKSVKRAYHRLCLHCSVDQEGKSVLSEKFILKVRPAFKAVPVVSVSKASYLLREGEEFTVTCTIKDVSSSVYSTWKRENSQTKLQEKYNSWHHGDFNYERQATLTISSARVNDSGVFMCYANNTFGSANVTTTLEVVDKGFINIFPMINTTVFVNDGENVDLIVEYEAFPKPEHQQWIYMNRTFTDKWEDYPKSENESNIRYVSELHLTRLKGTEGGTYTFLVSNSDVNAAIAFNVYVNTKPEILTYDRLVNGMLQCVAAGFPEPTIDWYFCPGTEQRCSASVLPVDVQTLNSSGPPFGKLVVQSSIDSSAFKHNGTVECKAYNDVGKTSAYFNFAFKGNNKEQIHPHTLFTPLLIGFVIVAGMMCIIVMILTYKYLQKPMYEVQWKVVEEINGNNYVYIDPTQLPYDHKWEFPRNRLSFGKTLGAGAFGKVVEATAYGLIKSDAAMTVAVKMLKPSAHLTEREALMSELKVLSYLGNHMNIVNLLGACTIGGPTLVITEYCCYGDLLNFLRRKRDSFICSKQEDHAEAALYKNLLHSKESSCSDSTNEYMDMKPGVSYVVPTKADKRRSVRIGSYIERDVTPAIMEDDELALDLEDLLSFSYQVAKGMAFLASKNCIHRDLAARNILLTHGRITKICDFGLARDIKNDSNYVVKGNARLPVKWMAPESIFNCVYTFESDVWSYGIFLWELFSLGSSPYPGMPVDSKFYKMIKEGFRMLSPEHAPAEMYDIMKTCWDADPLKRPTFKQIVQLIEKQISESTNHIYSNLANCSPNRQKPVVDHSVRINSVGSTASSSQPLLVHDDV

DAPK2 = molecular target: T9, DAPK2 (Homo sapiens, UniProt Q9UIK4); experiment: Kinome profiler screen; assay type: biochemical; details: at 20,000 nM inhibitor; kinase activity remaining
T9 construct: purchased Millipore KinaseProfiler

FAK = molecular target: T10, FAK (Homo sapiens, UniProt Q05397); experiment: Kinome profiler screen; assay type: biochemical; details: at 20,000 nM inhibitor; kinase activity remaining
T10 construct: purchased Millipore KinaseProfiler
T10 sequence (Q05397 whole entry): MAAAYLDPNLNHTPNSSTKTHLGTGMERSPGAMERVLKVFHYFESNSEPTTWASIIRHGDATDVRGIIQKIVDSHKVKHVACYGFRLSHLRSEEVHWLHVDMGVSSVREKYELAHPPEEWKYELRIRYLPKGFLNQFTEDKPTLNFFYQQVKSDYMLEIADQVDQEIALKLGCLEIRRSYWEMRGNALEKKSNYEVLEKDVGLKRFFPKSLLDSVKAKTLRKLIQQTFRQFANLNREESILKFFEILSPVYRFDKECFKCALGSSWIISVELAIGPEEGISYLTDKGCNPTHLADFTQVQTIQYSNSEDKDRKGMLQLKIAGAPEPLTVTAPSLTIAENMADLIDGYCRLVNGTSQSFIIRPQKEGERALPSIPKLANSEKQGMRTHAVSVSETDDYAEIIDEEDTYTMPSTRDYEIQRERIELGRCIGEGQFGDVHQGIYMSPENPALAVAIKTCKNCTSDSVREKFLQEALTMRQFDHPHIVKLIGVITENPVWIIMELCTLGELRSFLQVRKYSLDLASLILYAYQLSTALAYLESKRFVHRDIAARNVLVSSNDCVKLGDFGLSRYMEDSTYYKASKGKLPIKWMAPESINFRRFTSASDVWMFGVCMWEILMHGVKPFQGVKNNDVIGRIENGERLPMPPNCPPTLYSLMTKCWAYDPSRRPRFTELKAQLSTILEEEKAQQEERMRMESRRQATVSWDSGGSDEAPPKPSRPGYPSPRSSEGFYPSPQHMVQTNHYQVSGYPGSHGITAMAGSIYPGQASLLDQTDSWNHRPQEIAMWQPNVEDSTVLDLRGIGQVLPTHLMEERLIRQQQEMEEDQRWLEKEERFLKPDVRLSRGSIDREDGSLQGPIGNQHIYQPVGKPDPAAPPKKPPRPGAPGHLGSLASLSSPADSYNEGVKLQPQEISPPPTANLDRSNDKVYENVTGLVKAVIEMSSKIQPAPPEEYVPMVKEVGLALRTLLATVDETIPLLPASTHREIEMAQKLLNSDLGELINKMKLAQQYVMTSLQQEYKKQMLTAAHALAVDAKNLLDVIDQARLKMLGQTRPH

Fes = molecular target: T11, Fes (Homo sapiens, UniProt P07332); experiment: Kinome profiler screen; assay type: biochemical; details: at 20,000 nM inhibitor; kinase activity remaining
T11 construct: purchased Millipore KinaseProfiler

FGFR2 = molecular target: T12, FGFR2 (Homo sapiens, UniProt P21802); experiment: Kinome profiler screen; assay type: biochemical; details: at 20,000 nM inhibitor; kinase activity remaining
T12 construct: purchased Millipore KinaseProfiler

Flt3 = molecular target: T13, Flt3 (Homo sapiens, UniProt P36888); experiment: Kinome profiler screen; assay type: biochemical; details: at 20,000 nM inhibitor; kinase activity remaining
T13 construct: purchased Millipore KinaseProfiler

GRK6 = molecular target: T14, GRK6 (Homo sapiens, UniProt P43250); experiment: Kinome profiler screen; assay type: biochemical
T14 construct: purchased Millipore KinaseProfiler

Hck = molecular target: T15, Hck (Homo sapiens, UniProt P08631); experiment: Kinome profiler screen; assay type: biochemical; details: at 20,000 nM inhibitor; kinase activity remaining
T15 construct: purchased Millipore KinaseProfiler

Hck activated = molecular target: T16, Hck activated (Homo sapiens, UniProt P08631); experiment: Kinome profiler screen; assay type: biochemical; details: at 20,000 nM inhibitor; kinase activity remaining
T16 construct: purchased Millipore KinaseProfiler

IGF-1R = molecular target: T17, IGF-1R (Homo sapiens, UniProt P08069); experiment: Kinome profiler screen; assay type: biochemical; details: at 20,000 nM inhibitor; kinase activity remaining
T17 construct: purchased Millipore KinaseProfiler

KDR = molecular target: T18, KDR (Homo sapiens, UniProt P35968); experiment: Kinome profiler screen; assay type: biochemical; details: at 20,000 nM inhibitor; kinase activity remaining
T18 construct: purchased Millipore KinaseProfiler
T18 sequence (P35968 20-1356): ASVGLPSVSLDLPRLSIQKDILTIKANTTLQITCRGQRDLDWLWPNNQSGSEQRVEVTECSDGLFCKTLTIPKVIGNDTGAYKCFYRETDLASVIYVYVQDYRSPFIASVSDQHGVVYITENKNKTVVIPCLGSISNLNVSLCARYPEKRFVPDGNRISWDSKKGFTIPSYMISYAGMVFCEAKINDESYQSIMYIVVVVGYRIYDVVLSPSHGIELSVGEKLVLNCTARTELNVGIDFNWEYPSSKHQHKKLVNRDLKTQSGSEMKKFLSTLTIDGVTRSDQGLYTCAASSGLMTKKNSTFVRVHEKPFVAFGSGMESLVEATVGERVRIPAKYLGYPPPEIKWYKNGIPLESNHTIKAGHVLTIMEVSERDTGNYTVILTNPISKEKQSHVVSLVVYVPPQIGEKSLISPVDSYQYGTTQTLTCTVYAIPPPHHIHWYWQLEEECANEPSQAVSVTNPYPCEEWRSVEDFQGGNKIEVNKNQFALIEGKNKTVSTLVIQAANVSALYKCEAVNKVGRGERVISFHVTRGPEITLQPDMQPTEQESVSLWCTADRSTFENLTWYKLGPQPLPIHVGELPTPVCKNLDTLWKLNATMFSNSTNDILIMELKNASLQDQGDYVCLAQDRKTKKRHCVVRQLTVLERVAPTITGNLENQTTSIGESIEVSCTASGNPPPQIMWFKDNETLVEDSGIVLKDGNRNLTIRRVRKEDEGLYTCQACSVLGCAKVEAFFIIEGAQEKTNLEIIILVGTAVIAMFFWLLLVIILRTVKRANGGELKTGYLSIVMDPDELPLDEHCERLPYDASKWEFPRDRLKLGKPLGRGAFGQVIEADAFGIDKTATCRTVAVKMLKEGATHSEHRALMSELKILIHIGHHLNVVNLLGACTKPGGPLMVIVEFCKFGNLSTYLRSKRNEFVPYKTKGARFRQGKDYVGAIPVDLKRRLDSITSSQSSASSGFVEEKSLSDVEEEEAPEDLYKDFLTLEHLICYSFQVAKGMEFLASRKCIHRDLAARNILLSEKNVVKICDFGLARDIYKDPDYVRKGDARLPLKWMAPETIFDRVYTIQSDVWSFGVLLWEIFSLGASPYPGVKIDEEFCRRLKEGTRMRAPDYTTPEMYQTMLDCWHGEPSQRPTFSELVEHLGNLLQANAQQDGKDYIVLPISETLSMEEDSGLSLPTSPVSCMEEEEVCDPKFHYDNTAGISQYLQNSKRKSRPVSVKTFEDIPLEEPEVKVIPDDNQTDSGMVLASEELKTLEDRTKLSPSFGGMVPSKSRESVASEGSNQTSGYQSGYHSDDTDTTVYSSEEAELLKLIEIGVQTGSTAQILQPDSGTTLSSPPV

Lck activated = molecular target: T19, Lck activated (Homo sapiens, UniProt P06239); experiment: Kinome profiler screen; assay type: biochemical; details: at 20,000 nM inhibitor; kinase activity remaining
T19 construct: purchased Millipore KinaseProfiler

LIMK1 = molecular target: T20, LIMK1 (Homo sapiens, UniProt P53667); experiment: Kinome profiler screen; assay type: biochemical; details: at 20,000 nM inhibitor; kinase activity remaining
T20 construct: purchased Millipore KinaseProfiler

MAPK2(m) = molecular target: T21, MAPK2(m) (Mus musculus, UniProt P63085); experiment: Kinome profiler screen; assay type: biochemical; details: at 20,000 nM inhibitor; kinase activity remaining
T21 construct: purchased Millipore KinaseProfiler

MINK = molecular target: T22, MINK (Homo sapiens, UniProt Q8N4C8); experiment: Kinome profiler screen; assay type: biochemical; details: at 20,000 nM inhibitor; kinase activity remaining
T22 construct: purchased Millipore KinaseProfiler

MSSK1 = molecular target: T23, MSSK1 (Homo sapiens, UniProt Q9UPE1); experiment: Kinome profiler screen; assay type: biochemical; details: at 20,000 nM inhibitor; kinase activity remaining
T23 construct: purchased Millipore KinaseProfiler

MST3 = molecular target: T24, MST3 (Homo sapiens, UniProt Q9Y6E0); experiment: Kinome profiler screen; assay type: biochemical; details: at 20,000 nM inhibitor; kinase activity remaining
T24 construct: purchased Millipore KinaseProfiler

MuSK = molecular target: T25, MuSK (Homo sapiens, UniProt O15146); experiment: Kinome profiler screen; assay type: biochemical; details: at 20,000 nM inhibitor; kinase activity remaining
T25 construct: purchased Millipore KinaseProfiler

NEK11 = molecular target: T26, NEK11 (Homo sapiens, UniProt Q8NG66); experiment: Kinome profiler screen; assay type: biochemical; details: at 20,000 nM inhibitor; kinase activity remaining
T26 construct: purchased Millipore KinaseProfiler

PAK2 = molecular target: T27, PAK2 (Homo sapiens, UniProt Q13177); experiment: Kinome profiler screen; assay type: biochemical; details: at 20,000 nM inhibitor; kinase activity remaining
T27 construct: purchased Millipore KinaseProfiler

PASK = molecular target: T28, PASK (Homo sapiens, UniProt Q96RG2); experiment: Kinome profiler screen; assay type: biochemical; details: at 20,000 nM inhibitor; kinase activity remaining
T28 construct: purchased Millipore KinaseProfiler

PDGFRβ = molecular target: T29, PDGFRβ (Homo sapiens, UniProt P09619); experiment: Kinome profiler screen; assay type: biochemical; details: at 20,000 nM inhibitor; kinase activity remaining
T29 construct: purchased Millipore KinaseProfiler
T29 sequence (P09619 33-1106): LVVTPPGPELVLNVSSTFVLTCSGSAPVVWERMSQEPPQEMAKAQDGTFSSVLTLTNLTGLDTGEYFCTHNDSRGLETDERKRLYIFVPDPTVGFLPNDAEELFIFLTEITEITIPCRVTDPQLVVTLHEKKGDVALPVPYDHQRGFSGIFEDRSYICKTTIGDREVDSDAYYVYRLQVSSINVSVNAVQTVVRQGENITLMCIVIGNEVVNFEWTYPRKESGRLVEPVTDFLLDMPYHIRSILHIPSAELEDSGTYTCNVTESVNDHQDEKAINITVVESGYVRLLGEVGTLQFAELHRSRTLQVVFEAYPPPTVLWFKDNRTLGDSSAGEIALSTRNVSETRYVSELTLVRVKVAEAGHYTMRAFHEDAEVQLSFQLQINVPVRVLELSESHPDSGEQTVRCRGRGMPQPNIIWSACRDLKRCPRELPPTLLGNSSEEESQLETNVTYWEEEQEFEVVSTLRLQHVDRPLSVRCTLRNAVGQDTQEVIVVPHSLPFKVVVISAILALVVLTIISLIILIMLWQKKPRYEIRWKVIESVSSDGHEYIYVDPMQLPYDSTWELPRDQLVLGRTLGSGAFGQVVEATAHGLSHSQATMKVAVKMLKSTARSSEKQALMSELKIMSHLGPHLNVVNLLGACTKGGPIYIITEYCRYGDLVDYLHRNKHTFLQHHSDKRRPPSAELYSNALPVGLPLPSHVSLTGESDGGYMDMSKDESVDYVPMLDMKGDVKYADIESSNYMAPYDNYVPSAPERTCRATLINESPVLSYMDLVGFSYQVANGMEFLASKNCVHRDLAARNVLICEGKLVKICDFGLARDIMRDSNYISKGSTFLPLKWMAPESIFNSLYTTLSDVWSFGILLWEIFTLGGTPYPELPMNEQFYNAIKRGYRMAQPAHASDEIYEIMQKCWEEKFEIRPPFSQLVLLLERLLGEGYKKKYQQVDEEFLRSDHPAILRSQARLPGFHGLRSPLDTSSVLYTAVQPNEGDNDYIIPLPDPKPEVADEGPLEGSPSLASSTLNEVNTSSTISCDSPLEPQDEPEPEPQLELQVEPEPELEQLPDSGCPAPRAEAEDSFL

PDK1 = molecular target: T30, PDK1 (Homo sapiens, UniProt O15530); experiment: Kinome profiler screen; assay type: biochemical; details: at 20,000 nM inhibitor; kinase activity remaining
T30 construct: purchased Millipore KinaseProfiler

PIP5K1γ = molecular target: T31, PIP5K1γ (Homo sapiens, UniProt O60331); experiment: Kinome profiler screen; assay type: biochemical; details: at 20,000 nM inhibitor; kinase activity remaining
T31 construct: purchased Millipore KinaseProfiler
T31 sequence (O60331 whole entry): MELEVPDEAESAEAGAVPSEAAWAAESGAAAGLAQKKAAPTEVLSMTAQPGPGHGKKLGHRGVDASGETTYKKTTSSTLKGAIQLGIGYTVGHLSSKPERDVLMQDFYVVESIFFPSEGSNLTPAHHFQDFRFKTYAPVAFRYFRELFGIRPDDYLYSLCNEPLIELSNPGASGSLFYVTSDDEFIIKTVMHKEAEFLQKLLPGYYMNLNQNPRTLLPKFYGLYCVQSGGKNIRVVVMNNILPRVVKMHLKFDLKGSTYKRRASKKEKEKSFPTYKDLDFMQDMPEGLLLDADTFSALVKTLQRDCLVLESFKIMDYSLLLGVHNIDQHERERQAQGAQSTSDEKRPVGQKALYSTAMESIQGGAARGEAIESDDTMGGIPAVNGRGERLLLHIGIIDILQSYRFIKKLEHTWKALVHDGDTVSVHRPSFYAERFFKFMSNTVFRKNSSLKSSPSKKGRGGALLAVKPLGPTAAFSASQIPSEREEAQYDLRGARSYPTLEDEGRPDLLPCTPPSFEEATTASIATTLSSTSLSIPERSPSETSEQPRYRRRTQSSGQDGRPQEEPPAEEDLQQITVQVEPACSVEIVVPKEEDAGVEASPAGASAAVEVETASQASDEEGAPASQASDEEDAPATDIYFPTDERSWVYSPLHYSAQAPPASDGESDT

PKA = molecular target: T32, PKA (Homo sapiens, UniProt P17612); experiment: Kinome profiler screen; assay type: biochemical; details: at 20,000 nM inhibitor; kinase activity remaining
T32 construct: purchased Millipore KinaseProfiler

PKCι = molecular target: T33, PKCι (Homo sapiens, UniProt P41743); experiment: Kinome profiler screen; assay type: biochemical; details: at 20,000 nM inhibitor; kinase activity remaining
T33 construct: purchased Millipore KinaseProfiler

Plk1 = molecular target: T34, Plk1 (Homo sapiens, UniProt P53350); experiment: Kinome profiler screen; assay type: biochemical; details: at 20,000 nM inhibitor; kinase activity remaining
T34 construct: purchased Millipore KinaseProfiler

TLK2 = molecular target: T35, TLK2 (Homo sapiens, UniProt Q86UE8); experiment: Kinome profiler screen; assay type: biochemical; details: at 20,000 nM inhibitor; kinase activity remaining
T35 construct: purchased Millipore KinaseProfiler

Chemical stability = assay type: physicochemical
Method: Aqueous solubility (logS) and chemical stability were determined as previously described. Briefly, solutions for aqueous solubility (log S) determination were made by gravimetric methods using a Sartorius AG (Germany) BP 211 D analytical balance. Dry borosilicate capillary tubes (Büchi, Switzerland) were weighed and various amounts of compound (ranging from 1.2–1.5 mg) or the hydrochloride hydrate form (ranging from 10–20 mg) were added to the tared tubes, then water added to create solutions ranging in concentrations from […]. Tubes containing the samples were mixed to ensure wetting and incubated at 37°C for 24 h. Aliquots were collected from each tube, centrifuged at 12,000 g-min, and analyzed by HPLC. Concentrations were calculated using area under the peak (260 nm) at the appropriate retention time relative to a standard curve obtained from serial dilutions of each purified compound. […]. The co-solvent was methanol, experimental pH range was 1.7–10.0, temperature was 22±2°C, ionic strength was 0.15 M KCl. Five titrations were used to calculate the pKa using the Yasuda-Shedlovsky technique. […].

reference memory = experiment: 2-day radial arm water maze (RAWM), Aβ42-infused mice; assay type: in vivo, C57BL/6J mice; details: 5 mg/Kg i.p.
[1] = system: sensory perception of electric shock; experiment: Sensory threshold assessment; assay type: in vivo, C57BL/6J mice; details: control test
exploratory behavior = experiment: Open-field test; assay type: in vivo, C57BL/6J mice; details: time in and entries into center compartment; control test

| SMILES | activity at 20 µM (Abl(m)) | activity at 20 µM (Abl(T315I)) | activity at 20 µM (Arg(m)) | activity at 20 µM (BRK) | activity at 20 µM (CaMKI) | activity at 20 µM (CK1γ3) | activity at 20 µM (CK2) | activity at 20 µM (cKit) | activity at 20 µM (DAPK2) | activity at 20 µM (FAK) | activity at 20 µM (Fes) | activity at 20 µM (FGFR2) | activity at 20 µM (Flt3) | activity at 20 µM (Hck) | activity at 20 µM (Hck activated) | activity at 20 µM (IGF-1R) | activity at 20 µM (KDR) | activity at 20 µM (Lck activated) | activity at 20 µM (LIMK1) | activity at 20 µM (MAPK2(m)) | further results |
| --- | --- | --- | --- | --- | --- | --- | --- | --- | --- | --- | --- | --- | --- | --- | --- | --- | --- | --- | --- | --- | --- |
| CN(C)c1cc(-c2ccncc2)c(-c2cccc3ccccc23)nn1 [MW181, N,N-dimethyl-6-(naphthalen-1-yl)-5-(pyridin-4-yl)pyridazin-3-amine] | 88% | 107% | 96% | 101% | 101% | 105% | 104% | 106% | 106% | 102% | 100% | 98% | 93% | 84% | 106% | 121% | 97% | 84% | 95% | 106% | activity at 20 µM (GRK6; at 20,000 nM inhibitor, kinase activity remaining, read-out: % Activity): 105%; activity at 20 µM (MINK): 54%; activity at 20 µM (MSSK1): 100%; activity at 20 µM (MST3): 98%; activity at 20 µM (MuSK): 102%; activity at 20 µM (NEK11): 121%; activity at 20 µM (PAK2): 101%; activity at 20 µM (PASK): 97%; activity at 20 µM (PDGFRβ): 99%; activity at 20 µM (PDK1): 105%; activity at 20 µM (PIP5K1γ): 100%; activity at 20 µM (PKA): 142%; activity at 20 µM (PKCι): 82%; activity at 20 µM (Plk1): 110%; activity at 20 µM (TLK2): 107%; Chemical Stability (37ºC; 24 hrs) (Chemical stability; neutral, base (pH 13), acid (pH 2)): stable in neutral, base (pH 13), acid (pH 2); reference memory deficit, RAWM (reference memory): ameliorated the reference memory deficit; sensory threshold [1]: Sensory threshold was not affected regardless of treatment; exploratory behavior, open field (exploratory behavior): No differences in exploratory behavior |
| CN(C)c1cc(-c2ccncc2)c(-c2ccc3ccccc3c2)nn1 [MW108, N, N-dimethyl-6-(naphthalen-2-yl)-5-(pyridin-4-yl)pyridazin-3-amine] | 89% | 91% | 86% | 85% | 101% | 100% | 106% | 104% | 101% | 95% | 111% | 101% | 108% | 93% | 97% | 137% | 87% | 70% | 106% | 109% | activity at 20 µM (GRK6): 98%; activity at 20 µM (MINK): 48%; activity at 20 µM (MSSK1): 86%; activity at 20 µM (MST3): 98%; activity at 20 µM (MuSK): 104%; activity at 20 µM (NEK11): 108%; activity at 20 µM (PAK2): 103%; activity at 20 µM (PASK): 88%; activity at 20 µM (PDGFRβ): 99%; activity at 20 µM (PDK1): 104%; activity at 20 µM (PIP5K1γ): 104%; activity at 20 µM (PKA): 74%; activity at 20 µM (PKCι): 92%; activity at 20 µM (Plk1): 96%; activity at 20 µM (TLK2): 99%; Chemical Stability (37ºC; 24 hrs) (Chemical stability; 24 h, 0.0015 M): stable in neutral, base (pH 13), acid (pH 2); reference memory deficit, RAWM (reference memory): ameliorated the reference memory deficit; sensory threshold [1]: Sensory threshold was not affected regardless of treatment; exploratory behavior, open field (exploratory behavior): No differences in exploratory behavior |
